In patent publication US20250177396A1, “POLO-LIKE KINASE 4 (PLK4) INHIBITORS, PHARMACEUTICAL COMPOSITIONS, METHODS OF PREPARATION AND USES THEREOF” (Repare Therapeutics Inc., priority 2022, published 2025):

Biological target: T1, PLK4 (Homo sapiens, UniProt O00444)
T1 construct: expressed in transfected cells; host or cells: HEK293 T cells (ATCC CRL-3216)
T1 sequence (O00444 1-970): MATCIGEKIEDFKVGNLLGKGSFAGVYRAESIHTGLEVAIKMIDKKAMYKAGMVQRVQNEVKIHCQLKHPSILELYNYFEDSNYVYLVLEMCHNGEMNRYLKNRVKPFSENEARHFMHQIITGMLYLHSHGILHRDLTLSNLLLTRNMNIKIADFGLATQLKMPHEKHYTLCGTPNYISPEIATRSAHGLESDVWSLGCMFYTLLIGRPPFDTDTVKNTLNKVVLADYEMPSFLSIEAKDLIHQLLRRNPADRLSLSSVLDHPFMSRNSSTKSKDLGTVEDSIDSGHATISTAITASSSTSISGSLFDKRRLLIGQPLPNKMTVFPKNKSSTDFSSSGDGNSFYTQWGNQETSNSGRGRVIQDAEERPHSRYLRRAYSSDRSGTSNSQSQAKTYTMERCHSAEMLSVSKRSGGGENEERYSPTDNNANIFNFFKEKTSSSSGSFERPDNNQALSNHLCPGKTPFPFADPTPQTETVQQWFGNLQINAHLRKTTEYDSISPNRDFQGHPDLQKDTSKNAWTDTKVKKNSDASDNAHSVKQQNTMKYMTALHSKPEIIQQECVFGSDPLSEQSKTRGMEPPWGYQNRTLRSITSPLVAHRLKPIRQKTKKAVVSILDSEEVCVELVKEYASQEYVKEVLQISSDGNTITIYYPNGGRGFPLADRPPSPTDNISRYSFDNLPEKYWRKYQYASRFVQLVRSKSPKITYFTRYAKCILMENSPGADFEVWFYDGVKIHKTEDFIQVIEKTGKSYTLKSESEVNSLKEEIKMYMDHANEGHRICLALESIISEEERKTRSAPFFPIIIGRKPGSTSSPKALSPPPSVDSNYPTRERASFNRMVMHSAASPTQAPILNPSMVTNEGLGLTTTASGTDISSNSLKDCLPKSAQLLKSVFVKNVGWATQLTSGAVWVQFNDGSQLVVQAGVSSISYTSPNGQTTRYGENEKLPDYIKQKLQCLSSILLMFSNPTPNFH
Test: PLK4 NanoBRET target engagement assay
Assay type: binding
Settings: HEK293 T cells transfected with PLK4 NanoLuc fusion vector; K-5 tracer; 2 hrs incubation
Protocol: To determine the affinity of Compounds described herein in the PLK4 NanoBRET target engagement assay, HEK293 T cells (ATCC Product Number CRL-3216) are first transfected with the PLK4 NanoLuc fusion vector DNA and Transfection carrier DNA using the Fugene HD Transfection reagent in Opti-MEM No Phenol Red buffer. After an overnight incubation in a 37° C./5% CO2 incubator, the transfected HEK293 T cells are trypsinized, counted, and resuspended in Opti-MEM No Phenol Red buffer at a concentration of 200000 cells/mL. White 96-well plates are then plated with 85 μL of cells (17000 cells/well) to which 5 μL of the 20×K-5 tracer solution diluted in tracer dilution buffer is added. Finally, 10 μL of the 10× compounds are added and the plates and then incubated in a 37° C./5% CO2 incubator for 2 hrs. After the incubation, a 50 uL 3× solution of the substrate/inhibitor mix is added to the cells. The plate is then transferred in the Envision plate reader where the Acceptor emission (610 nm) and the Donor emission (450 nm) are measured.
The IC50 of compounds is determined as follows: • 1. The ratio between the Acceptor emission (610 nm)/Donor emission (450 nm) is calculated. • 2. This ratio is then multiplied by 1000 to obtain the mBRET units (multiplying by 1000 is an arbitrary step that simply makes the data easier to interpret; it has no impact on the data set itself) • 3. The mBRET units are then used in Scigilian Analyze software (https://analyze.scigilian.io) to determine the IC50 value using a 4-parameter fit analysis.

Row | IC50 | Structure (SMILES)
1 | 6 nM | Cc1cc(Nc2nc(N(C)c3c(F)cc(S(C)(=O)=O)cc3F)nc(-c3cnn(CCS(C)(=O)=O)c3)c2C2CC2)n[nH]1 [Compound 172]
2 | 2000 nM | COc1c(Nc2cc(C)[nH]n2)nc(N(C)c2ccc(S(C)(=O)=O)cc2F)c(C#N)c1-c1cnn(C)c1 [Compound 98]
3 | 27 nM | Cc1cc(Nc2nc(N(C)c3c(F)cc(S(C)(=O)=O)cc3F)nc(-c3cn[nH]c3C#N)c2C2CC2)n[nH]1 [Compound 317]
4 | 78 nM | Cc1cc(Nc2nc(N(C)c3ccc(S(C)(=O)=O)cc3F)cc(-c3cnn(C)c3)c2C2CC2)n[nH]1 [Compound 93]
5 | 16 nM | Cc1cc(Nc2nc(N(C)c3ccc(S(C)(=O)=O)cc3F)nc(-c3ccn(C)n3)c2C2CC2)n[nH]1 [Compound 12, 5-cyclopropyl-N^2-(2-fluoro-4-(methylsulfonyl)phenyl)-N^2-methyl-6-(1-methyl-1H-pyrazol-3-yl)-N^4-(5-methyl-1H-pyrazol-3-yl)pyrimidine-2,4-diamine]
6 | 6 nM | Cc1cc(Nc2nc(N(C)c3c(F)cc(S(C)(=O)=O)cc3F)nc(-c3cnn(CF)c3)c2C2CC2)n[nH]1 [Compound 127]
7 | 150 nM | Cc1cc(Nc2nc(N(C)c3c(F)cc(S(C)(=O)=O)cc3F)nc(N3CCO[C@@H](C(F)(F)F)C3)c2C2CC2)n[nH]1 [Compound 300]
8 | 41 nM | Cc1cc(Nc2nc(N(C)c3c(F)cc(S(C)(=O)=O)cc3F)nc(-c3nc(C)[nH]c3C)c2C2CC2)n[nH]1 [Compound 168]
9 | 18 nM | Cc1cc(Nc2nc(N(C)c3c(F)cc(C(C)(C)O)cc3F)nc(-c3cn(C)cn3)c2C2CC2)n[nH]1 [Compound 262]
10 | 3 nM | Cc1cc(Nc2nc(N(C)c3c(F)cc(S(C)(=O)=O)cc3F)nc(-c3cn4c(n3)CCC4)c2C2CC2)n[nH]1 [Compound 140]
11 | 260 nM | Cc1cc(Nc2nc(N(C)c3c(F)cc(C(=O)N4CCOCC4)cc3F)nc(-c3cn(C)cn3)c2C2CC2)n[nH]1 [Compound 356]
12 | 10 nM | COc1c(-c2nc(N(C)c3c(F)cc(S(C)(=O)=O)cc3F)nc(Nc3cc(C)[nH]n3)c2C2CC2)cnn1C [Compound 154]
13 | 3 nM | COC1CCc2nc(-c3nc(N(C)c4c(F)cc(S(C)(=O)=O)cc4F)nc(Nc4cc(C)[nH]n4)c3C3CC3)cn2C1 (stereo not shown) [Compound 324]
14 | 110 nM | Cc1cnn(-c2nc(N(C)c3ccc(S(C)(=O)=O)cc3F)nc(Nc3cc(C)[nH]n3)c2C2CC2)c1 [Compound 112]
15 | 15 nM | COCCn1ccc(-c2nc(N(C)c3c(F)cc(S(C)(=O)=O)cc3F)nc(Nc3cc(C)[nH]n3)c2C2CC2)n1 [Compound 150]
16 | 22 nM | Cc1cc(Nc2nc(N(C)c3c(F)cc(S(C)(=O)=O)cc3F)nc(-c3cn(C)nc3C#N)c2C2CC2)n[nH]1 [Compound 115]
17 | 24 nM | Cc1cc(-c2nc(N(C)c3c(F)cc(S(C)(=O)=O)cc3F)nc(Nc3cc(C)[nH]n3)c2C2CC2)cnn1 [Compound 130]
18 | 53 nM | Cc1cc(Nc2nc(N(C)c3c(F)cc(S(C)(=O)=O)cc3F)nc(-c3nn(C)cc3CO)c2C2CC2)n[nH]1 [Compound 218]
19 | 4 nM | CN(c1nc(Nc2cc(C3CC3)[nH]n2)c(C2CC2)c(-c2cnn(C)c2C(N)=O)n1)c1c(F)cc(S(C)(=O)=O)cc1F [Compound 256]
20 | 5 nM | Cc1cc(Nc2nc(N(C)c3c(F)cc(S(C)(=O)=O)cc3F)nc(-c3ccn(C4CC4)n3)c2C2CC2)n[nH]1 [Compound 209]
21 | 20 nM | CCN(c1nc(Nc2cc(C)[nH]n2)c(C2CC2)c(-c2cn(C)cn2)n1)c1cc(F)c(S(C)(=O)=O)cc1F [Compound 246]
22 | 420 nM | COCc1cc(Nc2nc(N(C)c3c(F)cc(S(C)(=O)=O)cc3F)nc(-c3cnn(C)c3)c2C2CC2)n[nH]1 [Compound 341]
23 | 7 nM | Cc1cc(Nc2nc(N(C)c3c(F)cc(S(C)(=O)=O)cc3F)nc(-c3cnn([C@H]4C[C@H](O)C4)c3)c2C2CC2)n[nH]1 [Compound 253]

Row | IC50 | Structure (SMILES)
24 | 5 nM | [2H]C([2H])([2H])N(C([2H])([2H])[2H])S(=O)(=O)c1ccc(N(C)c2nc(Nc3cc(C)[nH]n3)c(C3CC3)c(-c3cnn(C)c3)n2)c(F)c1 [Compound 26]
25 | 43 nM | Cc1cc(Nc2nc(N(C)c3c(F)cc(Br)cc3F)nc(-c3cn(C)cn3)c2C2CC2)n[nH]1 [Compound 335]
26 | > 5000 nM | Cc1cc(Nc2nc(N(C)c3c(F)cc(S(C)(=O)=O)cc3Cl)nc(-c3cnn(C)c3)c2C2CC2)n[nH]1 [Compound 118]
27 | 5 nM | Cc1cc(Nc2nc(N(C)c3c(F)cc(S(C)(=O)=O)cc3F)nc(-c3cn[nH]c3C3CC3)c2C2CC2)n[nH]1 [Compound 316]
28 | 190 nM | COc1c(Nc2cc(C)[nH]n2)nc(N(C)c2ccc(S(C)(=O)=O)cc2)nc1-c1cnn(C)c1 [Compound 83]
29 | 240 nM | Cc1cc(Nc2nc(N(C)c3ccc(S(C)(=O)=O)cc3F)nc(-c3ncc(C)s3)c2C2CC2)n[nH]1 [Compound 44]
30 | 18 nM | Cc1cc(Nc2nc(N(C)c3c(F)cc(S(C)(=O)=O)cc3F)nc(-c3cc(C#N)n(C)n3)c2C2CC2)n[nH]1 [Compound 145]
31 | 130 nM | Cc1cc(Nc2nc(N(C)c3ccc(S(C)(=O)=O)cc3C)nc(-c3cnn(C)c3)c2C2CC2)n[nH]1 [Compound 56]
32 | 14 nM | CN(c1nc(Nc2cc(C3CC3)[nH]n2)c(C2CC2)c(-c2ccnn2C2CC2)n1)c1c(F)cc(S(C)(=O)=O)cc1F [Compound 331]
33 | > 5000 nM | Cc1cc(Nc2nc(N(C)c3c(F)cc(CC(=O)N4CCOCC4)cc3F)nc(-c3cn(C)cn3)c2C2CC2)n[nH]1 [Compound 364]
34 | 45 nM | Cc1cc(Nc2nc(N(C)c3c(F)cc(S(C)(=O)=O)cc3F)nc(-c3ncn(C)c3C)c2C2CC2)n[nH]1 [Compound 283]
35 | 73 nM | Cc1cc(Nc2nc(N(C)c3ccc(S(=O)(=O)C(C)C)cc3)nc(-c3cnn(C)c3)c2C2CC2)n[nH]1 [Compound 81]
36 | 4 nM | Cc1cc(Nc2nc(N(C)c3c(F)cc(S(C)(=O)=O)cc3F)nc(-c3cnn(C)c3C(N)=O)c2C2CC2)n[nH]1 [Compound 231]
37 | 4 nM | Cc1cc(Nc2nc(N(C)c3c(F)cc(S(C)(=O)=O)cc3F)nc(-c3cn(C)nc3C3CC3)c2C2CC2)n[nH]1 [Compound 198]
38 | 14 nM | COC(C)(C)c1c(-c2nc(N(C)c3c(F)cc(S(C)(=O)=O)cc3F)nc(Nc3cc(C)[nH]n3)c2C2CC2)cnn1C [Compound 311]
39 | 1100 nM | COc1c(Nc2cc(C)[nH]n2)nc(N(C)c2ccc(S(C)(=O)=O)nc2)nc1-c1cnn(C)c1 [Compound 58]
40 | 5 nM | CCn1cnc(-c2nc(N(C)c3c(F)cc(S(C)(=O)=O)cc3F)nc(Nc3cc(C)[nH]n3)c2C2CC2)c1 [Compound 136]
41 | 6 nM | Cc1cc(Nc2nc(N(C)c3c(F)cc(S(C)(=O)=O)cc3F)nc(-c3cn(CCS(C)(=O)=O)nc3C)c2C2CC2)n[nH]1 [Compound 226]
42 | 4 nM | Cc1cc(Nc2nc(N(C)c3c(F)cc(S(C)(=O)=O)cc3F)nc(-c3cn(C)nc3CC#N)c2C2CC2)n[nH]1 [Compound 329]
43 | 28 nM | Cc1cc(Nc2nc(N(C)c3ccc(S(C)(=O)=O)cc3F)nc(-c3cnn(C4CN(S(C)(=O)=O)C4)c3)c2C2CC2)n[nH]1 [Compound 62]
44 | 8 nM | [2H]C([2H])([2H])n1ncc(-c2nc(N(C)c3c(F)cc(S(C)(=O)=O)cc3F)nc(Nc3cc(C)[nH]n3)c2C2CC2)c1C [Compound 153]
45 | 6 nM | Cc1cc(Nc2nc(N(C)c3c(F)cc(S(C)(=O)=O)cc3F)nc(-c3cnn(CC(C)(C)O)c3)c2C2CC2)n[nH]1 [Compound 213]
46 | 37 nM | Cc1cc(Nc2nc(N(C)c3c(F)cc(S(C)(=O)=O)cc3F)nc(Nc3cnn(C)c3)c2C2CC2)n[nH]1 [Compound 334]
